Reference: patent publication US5488060A, “Substituted thiadiazoles, compositions containing them and their use as antimicrobial and marine antifouling agents” (The Dow Chemical Company, priority 1994, dated 1996)
≈ marks a conversion by molar mass, not a printed value. Where two headings read alike, the source gives them in different places.

Experiments:
Assay type in all cases: cell-based
[1] = tested on: Fusarium oxysporum (Fo); assay: Minimum inhibitory concentration (MIC) in malt yeast agar, Fusarium oxysporum
Method: (§1) The antimicrobial activity of the compounds of the present invention is set forth as the minimum inhibitory concentration (MIC) for the active compounds and is determined for nine (9) bacteria, using nutrient agar, and seven (7) yeast and fungi, using malt yeast agar. This determination is conducted using a one percent solution of the test compound prepared in a mixture of acetone and water.
(§2) Malt yeast agar is prepared at pH 5.5 by adding 3 g yeast extract and 45 g malt agar per liter of deionized water. The specific agar is dispensed in 30 mL aliquots into 25×200 mm test tubes, capped and autoclaved for 15 minutes at 115° C.
(§3) The test tubes containing the agar are cooled in a water bath until the temperature of the agar is 48° C. Then, an appropriate amount of the one percent solution of the test compound is added (except in the controls where no compound is added) to the respective test tubes so that the final concentrations are 500, […], 100, 50, 25, 10, 5, 2.5, 1.0 and zero parts per million of the test compound in the agar, thus having a known concentration of test compound dispersed therein. The contents of the test tubes are then transferred to respective petri plates. After drying for 24 hours, the petri plates containing nutrient agar are inoculated with bacteria and those containing malt yeast agar are inoculated with yeast and fungi.
(§4) The inoculation with the yeast and fungi is accomplished as follows. Cultures of yeast and fungi are incubated for seven days on malt yeast agar at 30° C. These cultures are used to prepare suspensions by the following procedure. A suspension of each organism is prepared by adding 10 mL of sterile saline and 10 microliters of octylphenoxy polyethoxy ethanol to the agar slant of yeast or fungi. The sterile saline/octylphenoxy potyethoxy ethanol solution is then agitated with a sterile swab to suspend the microorganism grown on the slant. Each resulting suspension is diluted into sterile saline (1 part suspension: 9 parts sterile saline). Aliquots of these dilutions are placed in individual wells of Steer's Replicator and petri plates inoculated as previously described. The petri plates are incubated at 30° C. and read after 48 hours for yeast and 72 hours for fungi.

[2] = tested on: Klebsiella pneumoniae (Kp); assay: Minimum inhibitory concentration (MIC) in nutrient agar, Klebsiella pneumoniae
Method: as §1
(§5) Nutrient agar is prepared at pH 6.8, representing a neutral medium, and at pH 8.2, representing an alkaline medium. The nutrient agars are prepared by adding 23 g of nutrient agar to one-liter of deionized water. In addition, the alkaline medium is prepared by adjusting a 0.04M solution of N-[tris-(hydroxymethyl)methyl]glycine buffered deionized water with concentrated sodium hydroxide to a pH of 8.5.
as §3
(§6) The inoculation with bacteria is accomplished by using the following procedure. Twenty-four hour-cultures of each of the bacteria are prepared by incubating the respective bacteria in tubes containing nutrient broth for 24 hours at 30° C. in a shaker. Dilutions of each of the 24 hour-cultures are made so that nine separate suspensions (one for each of the nine test bacteria) are made, each containing 10^8 colony forming units (CFU) per mL of suspension of a particular bacteria. Aliquots of 0.3 mL of each of the bacterial suspensions are used to fill the individual wells of Steer's Replicator. For each microbial suspension, 0.3 mL was used to fill three wells (i.e., three wells of 0.3 mL each) so that for the nine different bacteria, 27 wells are filled. The Steer's Replicator is then used to inoculate both the neutral and alkaline pH nutrient agar petri plates.
(§7) The inoculated petri plates are incubated at 30° C. for 48 hours and then read to determine if the test compound which is incorporated into the agar prevented growth of the respective bacteria.

[3] = tested on: Saccharomyces cerevisiae (Sc); assay: Minimum inhibitory concentration (MIC) in malt yeast agar, Saccharomyces cerevisiae
Method: as §1, §2, §3, §4

[4] = tested on: Enterobacter aerogenes (Ea); assay: Minimum inhibitory concentration (MIC) in nutrient agar, Enterobacter aerogenes; conditions: Klebsiella aerogenes, 48 h
Method: as §1, §5, §3, §6, §7

[5] = tested on: Aureobasidium pullulan (Ap); assay: Minimum inhibitory concentration (MIC) in malt yeast agar, Aureobasidium pullulan
Method: as §1, §2, §3, §4

[6] = tested on: Escherichia coli (Ec); assay: Minimum inhibitory concentration (MIC) in nutrient agar, Escherichia coli
Method: as §1, §5, §3, §6, §7

[7] = tested on: Candida albicans (Ca); assay: Minimum inhibitory concentration (MIC) in malt yeast agar, Candida albicans
Method: as §1, §2, §3, §4

[8] = tested on: Pseudomonas aeruginosa (Pa); assay: Minimum inhibitory concentration (MIC) in nutrient agar, Pseudomonas aeruginosa; conditions: 30° C., 48 hours, read-out: Minimum Inhibitory Concentration, Pa
Method: as §1, §5, §3, §6, §7

[9] = tested on: Bacillus subtilis (Bs); assay: Minimum inhibitory concentration (MIC) in nutrient agar, Bacillus subtilis
Method: as §1, §5, §3, §6, §7

[10] = tested on: Trichoderma viride (Tv); assay: Minimum inhibitory concentration (MIC) in malt yeast agar, Trichoderma viride; conditions: pH 5.5; malt yeast agar, 30° C., 72 hours for fungi; read-out: Minimum Inhibitory Concentration, Tv
Method: as §1, §2, §3, §4

[11] = tested on: Pseudomonas aeruginosa (PRD-10); assay: Minimum inhibitory concentration (MIC) in nutrient agar, Pseudomonas aeruginosa PRD-10; conditions: 48 h
Method: as §1, §5, §3, §6, §7

[12] = tested on: Penicillium chrysogenum (Pc); assay: Minimum inhibitory concentration (MIC) in malt yeast agar, Penicillium chrysogenum
Method: as §1, §2, §3, §4

[13] = tested on: Salmonella choleraesuis (Se); assay: Minimum inhibitory concentration (MIC) in nutrient agar, Salmonella choleraesuis; conditions: Salmonella enterica, 48 h
Method: as §1, §5, §3, §6, §7

[14] = tested on: Proteus vulgaris (Pv); assay: Minimum inhibitory concentration (MIC) in nutrient agar, Proteus vulgaris; conditions: 48 h
Method: as §1, §5, §3, §6, §7

[15] = tested on: Staphylococcus aureus (Sa); assay: Minimum inhibitory concentration (MIC) in nutrient agar, Staphylococcus aureus
Method: as §1, §5, §3, §6, §7

[16] = tested on: Aspergillus niger (An); assay: Minimum inhibitory concentration (MIC) in malt yeast agar, Aspergillus niger
Method: as §1, §2, §3, §4

[17] = pH 5.5, malt yeast agar, 30° C., 72 hours for fungi, read-out: Minimum Inhibitory Concentration, Fo
[18] = 48 h, pH 8.2, read-out: Minimum Inhibitory Concentration, Kp
[19] = pH 6.8, nutrient agar, 30° C., 48 hours, read-out: Minimum Inhibitory Concentration, Kp
[20] = pH 6.8, read-out: Minimum Inhibitory Concentration, Ea
[21] = pH 8.2, read-out: Minimum Inhibitory Concentration, Ea
[22] = 48 h, pH 6.8, read-out: Minimum Inhibitory Concentration, Ec
[23] = pH 5.5, malt yeast agar, 30° C., 48 hours for yeast, read-out: Minimum Inhibitory Concentration, Ca
[24] = pH 6.8, nutrient agar, 30° C., 48 hours, read-out: Minimum Inhibitory Concentration, Bs
[25] = pH 6.8, read-out: Minimum Inhibitory Concentration, PRD
[26] = pH 8.2, read-out: Minimum Inhibitory Concentration, PRD
[27] = 72 h, pH 5.5, read-out: Minimum Inhibitory Concentration, PC
[28] = pH 6.8, read-out: Minimum Inhibitory Concentration, SC
[29] = pH 8.2, read-out: Minimum Inhibitory Concentration, SC
[30] = pH 6.8, read-out: Minimum Inhibitory Concentration, Pv
[31] = pH 8.2, read-out: Minimum Inhibitory Concentration, Pv
[32] = pH 6.8, nutrient agar, 30° C., 48 hours, read-out: Minimum Inhibitory Concentration, Sa
[33] = 72 h, pH 5.5, read-out: Minimum Inhibitory Concentration, An
[34] = pH 5.5, malt yeast agar, 30° C., 48 hours for yeast, read-out: Minimum Inhibitory Concentration, SC
[35] = pH 5.5, malt yeast agar, 30° C., read-out: Minimum Inhibitory Concentration, Ap
[36] = 48 h, pH 8.2, read-out: Minimum Inhibitory Concentration, Ec
[37] = 48 h, pH 8.2, read-out: Minimum Inhibitory Concentration, Bs
[38] = 48 h, pH 8.2, read-out: Minimum Inhibitory Concentration, Sa

| SMILES | MIC [1, 17] | MIC [2, 18] | MIC [2, 19] | MIC [4, 20] | MIC [4, 21] | MIC [6, 22] | MIC [7, 23] | MIC ([8]; pH 6.8, nutrient agar) | MIC ([8]; pH 8.2, nutrient agar) | MIC [9, 24] | MIC [10] | MIC [11, 25] | MIC [11, 26] | MIC [12, 27] | MIC [13, 28] | MIC [13, 29] | MIC [14, 30] | MIC [14, 31] | MIC [15, 32] | MIC [16, 33] | other results |
| --- | --- | --- | --- | --- | --- | --- | --- | --- | --- | --- | --- | --- | --- | --- | --- | --- | --- | --- | --- | --- | --- |
| N#CSCSc1nsnc1-c1ccc(C(F)(F)F)cc1 [Example XXVI, 4-(4-Trifluoromethyl-phenyl)-3-thiocyanatomethylthio-1,2,5-thiadiazole] | > 500 µg/mL | > 500 µg/mL | 500 µg/mL (≈ 1500 µM) | 500 µg/mL (≈ 1500 µM) | > 500 µg/mL | 500 µg/mL (≈ 1500 µM) | > 500 µg/mL | 500 µg/mL (≈ 1500 µM) | > 500 µg/mL | 9 µg/mL (≈ 27 µM) | > 500 µg/mL | 500 µg/mL (≈ 1500 µM) | > 500 µg/mL | 2.5 µg/mL (≈ 7.5 µM) | 500 µg/mL (≈ 1500 µM) | > 500 µg/mL | 500 µg/mL (≈ 1500 µM) | > 500 µg/mL | 25 µg/mL (≈ 75 µM) | 25 µg/mL (≈ 75 µM) | MIC ([3]; 48 h, pH 5.5, read-out: Minimum Inhibitory Concentration, SC): 2.5 µg/mL (≈ 7.5 µM); MIC ([5]; pH 5.5, read-out: Minimum Inhibitory Concentration, Ap): 5 µg/mL (≈ 15 µM); MIC ([6]; pH 8.2, nutrient agar, 30° C., 48 hours, read-out: Minimum Inhibitory Concentration, Ec): 250 µg/mL (≈ 750 µM); MIC ([9]; pH 8.2, nutrient agar, 30° C., 48 hours, read-out: Minimum Inhibitory Concentration, Bs): 9 µg/mL (≈ 27 µM); MIC ([15]; pH 8.2, nutrient agar, 30° C., 48 hours, read-out: Minimum Inhibitory Concentration, Sa): 25 µg/mL (≈ 75 µM) |
| COc1ccc(-c2nsnc2SC#N)cc1 [Example VIII, 4-(4-Methoxyphenyl)-3-thiocyanato-1,2,5-thiadiazole] |  | > 500 µg/mL | > 500 µg/mL | > 500 µg/mL | > 500 µg/mL | > 500 µg/mL |  | > 500 µg/mL | > 500 µg/mL |  | 9 µg/mL (≈ 36.1 µM) | > 500 µg/mL | > 500 µg/mL |  | > 500 µg/mL | > 500 µg/mL | > 500 µg/mL | > 500 µg/mL | > 500 µg/mL |  | MIC ([1]; 72 h, pH 5.5, read-out: Minimum Inhibitory Concentration, Fo): 50 µg/mL (≈ 201 µM); MIC [3, 34]: 9 µg/mL (≈ 36.1 µM); MIC [5, 35]: 9 µg/mL (≈ 36.1 µM); MIC [6, 36]: > 500 µg/mL; MIC ([7]; 48 h, pH 5.5, read-out: Minimum Inhibitory Concentration, Ca): 25 µg/mL (≈ 100 µM); MIC ([9]; 48 h, pH 6.8, read-out: Minimum Inhibitory Concentration, Bs): 100 µg/mL (≈ 401 µM); MIC [9, 37]: > 500 µg/mL; MIC ([12]; pH 5.5, malt yeast agar, 30° C., 72 hours for fungi, read-out: Minimum Inhibitory Concentration, PC): > 500 µg/mL; MIC [15, 38]: > 500 µg/mL; MIC ([16]; pH 5.5, malt yeast agar, 30° C., 72 hours for fungi, read-out: Minimum Inhibitory Concentration, An): 100 µg/mL (≈ 401 µM) |
| COC(=O)c1ccc(-c2nsnc2SC#N)cc1 [Example XII] | 10 µg/mL (≈ 36.1 µM) | 500 µg/mL (≈ 1800 µM) | 500 µg/mL (≈ 1800 µM) | 500 µg/mL (≈ 1800 µM) | 500 µg/mL (≈ 1800 µM) | 500 µg/mL (≈ 1800 µM) | 10 µg/mL (≈ 36.1 µM) | 500 µg/mL (≈ 1800 µM) | 500 µg/mL (≈ 1800 µM) | 25 µg/mL (≈ 90.1 µM) |  | 500 µg/mL (≈ 1800 µM) | 500 µg/mL (≈ 1800 µM) | 100 µg/mL (≈ 361 µM) | 500 µg/mL (≈ 1800 µM) | 500 µg/mL (≈ 1800 µM) | 500 µg/mL (≈ 1800 µM) | 500 µg/mL (≈ 1800 µM) | 500 µg/mL (≈ 1800 µM) | 25 µg/mL (≈ 90.1 µM) | MIC [3, 34]: 10 µg/mL (≈ 36.1 µM); MIC [5, 35]: 10 µg/mL (≈ 36.1 µM); MIC [6, 36]: 500 µg/mL (≈ 1800 µM); MIC [9, 37]: 500 µg/mL (≈ 1800 µM); MIC [15, 38]: 500 µg/mL (≈ 1800 µM) |
